Results published in ChEMBL document CHEMBL1156713, “NSAIDs revisited: putative molecular basis of their interactions with peroxisome proliferator-activated gamma receptor (PPARgamma)” (Eur J Med Chem, 2008).

How the values were obtained:
[1] = target: T1, Peroxisome proliferator-activated receptor gamma (Homo sapiens) (UniProt P37231); assay: Activity at PPARgamma in human Caco-2 cells assessed as luciferase activity at 50 uM relative to control; type: cell-based
T1 sequence (whole entry): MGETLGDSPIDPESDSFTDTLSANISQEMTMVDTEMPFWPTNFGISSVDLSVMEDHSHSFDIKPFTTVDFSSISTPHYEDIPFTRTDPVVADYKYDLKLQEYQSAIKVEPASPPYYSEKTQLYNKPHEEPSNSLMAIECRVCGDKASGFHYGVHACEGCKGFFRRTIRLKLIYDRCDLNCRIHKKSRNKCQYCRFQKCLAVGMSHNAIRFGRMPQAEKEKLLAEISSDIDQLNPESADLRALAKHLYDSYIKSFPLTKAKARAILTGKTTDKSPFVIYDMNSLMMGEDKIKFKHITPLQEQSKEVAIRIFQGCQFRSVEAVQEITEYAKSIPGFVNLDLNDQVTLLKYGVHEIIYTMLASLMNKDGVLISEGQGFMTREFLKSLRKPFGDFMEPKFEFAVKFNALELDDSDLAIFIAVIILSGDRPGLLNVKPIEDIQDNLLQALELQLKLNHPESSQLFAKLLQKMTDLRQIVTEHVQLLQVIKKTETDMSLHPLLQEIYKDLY

[2] = target: T1, Peroxisome proliferator-activated receptor gamma (Homo sapiens); assay: Activity at PPARgamma in human Caco-2 cells assessed as luciferase activity at 100 uM relative to control; type: cell-based
[3] = target: T1, Peroxisome proliferator-activated receptor gamma (Homo sapiens); assay: Activity at PPARgamma in human Caco-2 cells assessed as luciferase activity at 10000 uM relative to control; type: cell-based
[4] = target: T1, Peroxisome proliferator-activated receptor gamma (Homo sapiens); assay: Activity at PPARgamma in human Caco-2 cells assessed as luciferase activity at 1000 uM relative to control; type: cell-based
[5] = Ratio of IC50 for COX1 to IC50 for COX2
[6] = target: T1, Peroxisome proliferator-activated receptor gamma (Homo sapiens); assay: Activity at PPARgamma in human Caco-2 cells assessed as luciferase activity at 400 uM relative to control; type: cell-based

## COc1ccc2c(c1)c(CC(=O)O)c(C)n2C(=O)c1ccc(Cl)cc1
[1]
  fold change (FC): 6.43

## CC1=C(CC(=O)O)c2cc(F)ccc2/C1=C\c1ccc([S+](C)[O-])cc1 (configuration not stated)
[2]
  fold change (FC): 2.51

## CC(=O)Oc1ccccc1C(=O)O
[3]
  fold change (FC): 4.02

## CC(C)Cc1ccc(C(C)C(=O)O)cc1 (configuration not stated)
[4]
  fold change (FC): 5.81

## CSc1ccc(/C=C2/C(C)=C(CC(=O)O)c3cc(F)ccc32)cc1
[5]
  Ratio IC50: 0.258

## CC1=C(CC(=O)O)c2cc(F)ccc2/C1=C\c1ccc(S(C)(=O)=O)cc1
[6]
  fold change (FC): 3.33

## CN1C(C(=O)Nc2ccccn2)=C(O)c2ccccc2S1(=O)=O
[4]
  fold change (FC): 1.92
